{"source": "patent US9340590B2", "about": "(priority 2011, dated 2016)", "key": {"hNav1.5": {"molecular_target": "hNav1.5 (Homo sapiens, UniProt Q14524)", "sequence (Q14524 whole entry, looked up)": "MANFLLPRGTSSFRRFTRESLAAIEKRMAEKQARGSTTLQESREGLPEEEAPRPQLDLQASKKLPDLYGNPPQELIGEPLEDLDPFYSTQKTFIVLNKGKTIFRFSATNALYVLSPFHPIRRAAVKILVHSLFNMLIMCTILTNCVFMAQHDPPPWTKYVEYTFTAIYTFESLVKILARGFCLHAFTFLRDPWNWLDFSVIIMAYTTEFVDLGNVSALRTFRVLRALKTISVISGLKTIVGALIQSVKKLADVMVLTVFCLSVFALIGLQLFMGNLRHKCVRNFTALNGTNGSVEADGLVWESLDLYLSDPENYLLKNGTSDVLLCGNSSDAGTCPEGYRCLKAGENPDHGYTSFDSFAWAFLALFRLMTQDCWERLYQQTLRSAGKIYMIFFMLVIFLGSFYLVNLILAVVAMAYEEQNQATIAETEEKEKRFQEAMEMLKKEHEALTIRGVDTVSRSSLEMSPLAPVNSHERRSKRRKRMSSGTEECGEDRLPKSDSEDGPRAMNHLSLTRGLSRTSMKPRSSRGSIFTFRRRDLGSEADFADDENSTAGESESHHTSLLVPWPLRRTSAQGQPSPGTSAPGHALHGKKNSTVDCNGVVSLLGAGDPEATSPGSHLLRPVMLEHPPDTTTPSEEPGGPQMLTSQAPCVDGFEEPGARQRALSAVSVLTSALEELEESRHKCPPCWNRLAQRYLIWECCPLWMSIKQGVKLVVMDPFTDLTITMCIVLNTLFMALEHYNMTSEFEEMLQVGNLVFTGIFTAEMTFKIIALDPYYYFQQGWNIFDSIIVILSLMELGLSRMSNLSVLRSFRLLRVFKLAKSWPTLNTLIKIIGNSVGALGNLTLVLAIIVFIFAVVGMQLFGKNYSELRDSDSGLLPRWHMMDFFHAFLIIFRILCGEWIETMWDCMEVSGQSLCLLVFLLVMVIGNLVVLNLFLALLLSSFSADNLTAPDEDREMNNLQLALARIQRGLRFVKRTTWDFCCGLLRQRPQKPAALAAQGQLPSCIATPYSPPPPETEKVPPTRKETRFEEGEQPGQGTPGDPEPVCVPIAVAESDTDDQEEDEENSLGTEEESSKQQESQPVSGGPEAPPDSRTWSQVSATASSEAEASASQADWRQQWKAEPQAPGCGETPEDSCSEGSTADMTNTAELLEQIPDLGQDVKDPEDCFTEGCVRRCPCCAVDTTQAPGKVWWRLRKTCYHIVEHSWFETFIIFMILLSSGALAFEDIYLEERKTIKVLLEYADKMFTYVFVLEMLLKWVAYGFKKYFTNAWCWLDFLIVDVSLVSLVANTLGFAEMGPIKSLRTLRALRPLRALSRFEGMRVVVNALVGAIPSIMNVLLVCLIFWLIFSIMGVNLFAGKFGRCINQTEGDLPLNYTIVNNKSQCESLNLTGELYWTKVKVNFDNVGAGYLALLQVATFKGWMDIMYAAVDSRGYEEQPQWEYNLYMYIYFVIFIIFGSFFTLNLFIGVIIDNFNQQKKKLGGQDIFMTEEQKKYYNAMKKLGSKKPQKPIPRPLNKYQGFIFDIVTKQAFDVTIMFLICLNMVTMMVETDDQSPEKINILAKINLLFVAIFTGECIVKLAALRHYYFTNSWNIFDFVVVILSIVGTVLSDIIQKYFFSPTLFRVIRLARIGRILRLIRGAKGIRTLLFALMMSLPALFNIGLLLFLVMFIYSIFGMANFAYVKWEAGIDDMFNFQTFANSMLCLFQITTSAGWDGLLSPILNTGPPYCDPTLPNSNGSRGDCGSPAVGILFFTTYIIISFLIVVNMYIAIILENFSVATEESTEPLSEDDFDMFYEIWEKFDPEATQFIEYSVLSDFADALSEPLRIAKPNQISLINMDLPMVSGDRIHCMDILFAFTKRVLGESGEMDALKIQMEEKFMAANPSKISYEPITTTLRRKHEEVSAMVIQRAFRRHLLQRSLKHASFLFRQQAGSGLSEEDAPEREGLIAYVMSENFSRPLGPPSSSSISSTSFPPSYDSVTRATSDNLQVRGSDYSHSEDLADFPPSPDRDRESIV", "assay": "cell-based"}, "hNav1.3": {"molecular_target": "hNav1.3 (Homo sapiens, UniProt Q9NY46)", "sequence (Q9NY46 whole entry, looked up)": "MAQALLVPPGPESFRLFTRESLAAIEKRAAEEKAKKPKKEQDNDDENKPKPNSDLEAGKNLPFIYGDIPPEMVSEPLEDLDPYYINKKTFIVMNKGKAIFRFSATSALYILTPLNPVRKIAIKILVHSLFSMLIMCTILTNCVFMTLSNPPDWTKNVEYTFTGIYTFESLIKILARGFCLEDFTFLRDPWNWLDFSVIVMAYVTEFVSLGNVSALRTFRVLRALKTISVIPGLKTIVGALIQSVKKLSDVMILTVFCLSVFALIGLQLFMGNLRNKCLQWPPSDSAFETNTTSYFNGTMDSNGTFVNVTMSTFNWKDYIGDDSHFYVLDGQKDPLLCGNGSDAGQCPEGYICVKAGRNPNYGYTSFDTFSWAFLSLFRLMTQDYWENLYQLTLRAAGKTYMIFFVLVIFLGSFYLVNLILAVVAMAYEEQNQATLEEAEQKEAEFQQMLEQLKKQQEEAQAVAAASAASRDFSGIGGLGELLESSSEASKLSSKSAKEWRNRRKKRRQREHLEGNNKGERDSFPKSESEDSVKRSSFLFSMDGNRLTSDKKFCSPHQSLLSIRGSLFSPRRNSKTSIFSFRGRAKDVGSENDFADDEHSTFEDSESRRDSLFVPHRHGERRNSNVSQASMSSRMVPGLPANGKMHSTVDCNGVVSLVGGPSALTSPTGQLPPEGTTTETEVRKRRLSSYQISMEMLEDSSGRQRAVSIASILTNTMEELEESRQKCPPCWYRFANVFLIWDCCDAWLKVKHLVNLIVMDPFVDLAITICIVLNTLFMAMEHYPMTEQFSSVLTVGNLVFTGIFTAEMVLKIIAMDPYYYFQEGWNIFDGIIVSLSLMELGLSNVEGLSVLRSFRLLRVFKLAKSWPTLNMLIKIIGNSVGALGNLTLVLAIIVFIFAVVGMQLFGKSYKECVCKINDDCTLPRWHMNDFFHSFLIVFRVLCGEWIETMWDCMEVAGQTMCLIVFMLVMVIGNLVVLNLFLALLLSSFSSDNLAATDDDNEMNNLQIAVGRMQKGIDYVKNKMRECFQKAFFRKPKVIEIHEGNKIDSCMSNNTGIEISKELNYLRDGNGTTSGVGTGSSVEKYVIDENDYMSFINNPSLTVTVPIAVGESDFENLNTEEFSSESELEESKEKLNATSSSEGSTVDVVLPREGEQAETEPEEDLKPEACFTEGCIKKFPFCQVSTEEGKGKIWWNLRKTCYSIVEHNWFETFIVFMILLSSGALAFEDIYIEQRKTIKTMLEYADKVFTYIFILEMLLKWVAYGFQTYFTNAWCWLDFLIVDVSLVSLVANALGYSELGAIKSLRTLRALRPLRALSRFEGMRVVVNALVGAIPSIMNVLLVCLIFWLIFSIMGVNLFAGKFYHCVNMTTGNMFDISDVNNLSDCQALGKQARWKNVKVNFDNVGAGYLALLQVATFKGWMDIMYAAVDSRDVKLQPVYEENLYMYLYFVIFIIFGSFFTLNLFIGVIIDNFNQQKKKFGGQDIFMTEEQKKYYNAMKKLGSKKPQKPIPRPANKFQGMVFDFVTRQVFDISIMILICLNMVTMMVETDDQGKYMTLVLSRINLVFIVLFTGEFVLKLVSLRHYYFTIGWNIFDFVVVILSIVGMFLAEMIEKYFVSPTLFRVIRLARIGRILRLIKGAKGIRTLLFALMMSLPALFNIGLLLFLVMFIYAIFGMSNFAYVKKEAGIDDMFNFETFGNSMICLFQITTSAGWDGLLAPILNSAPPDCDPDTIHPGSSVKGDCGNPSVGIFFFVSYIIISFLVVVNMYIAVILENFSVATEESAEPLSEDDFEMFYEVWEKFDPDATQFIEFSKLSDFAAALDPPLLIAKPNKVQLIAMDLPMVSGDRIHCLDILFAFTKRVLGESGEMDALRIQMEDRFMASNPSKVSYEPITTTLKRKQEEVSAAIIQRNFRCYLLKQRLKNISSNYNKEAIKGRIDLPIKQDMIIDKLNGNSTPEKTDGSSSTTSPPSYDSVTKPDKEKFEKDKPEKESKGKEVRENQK", "assay": "cell-based", "conditions": "IonWorks Quattro, read-out: IWQ Use Nav1.3"}, "[1]": {"conditions": "IonWorks Quattro, Use, read-out: IWQ Use Nav1.5"}}, "note": "Where two headings read alike, the source gives them in different places. Positions of bridges follow the written chain, without caps; N, C: chain ends. Non-standard residues stand in square brackets, D forms with d. Residues, ends and D or L forms follow the SMILES beside them. 1Nal = N[C@@H](Cc1cccc2ccccc12)C(=O)O", "data": [{"smiles": "CC[C@H](C)[C@@H]1NC(=O)[C@@H]2CSSC[C@@H]3NC(=O)[C@H](CCC(=O)O)NC(=O)[C@H](CC(C)C)NC(=O)[C@H](CC(N)=O)NC(=O)[C@@H]4CCCN4C(=O)[C@H](CCCNC(=N)N)NC(=O)[C@H](CSSC[C@H](NC(=O)[C@@H](N)CC(=O)O)C(=O)N[C@@H](CC(C)C)C(=O)NCC(=O)N[C@@H](Cc4ccccc4)C(=O)N[C@@H](CCSC)C(=O)N[C@@H](CCCNC(=N)N)C(=O)N[C@@H](CCCCN)C(=O)N2)NC(=O)[C@H](CSSC[C@@H](C(=O)N[C@@H](CCCCN)C(=O)N[C@@H](Cc2ccc(O)cc2)C(=O)N[C@H](C(=O)N[C@@H](Cc2ccccc2)C(N)=O)C(C)C)NC(=O)[C@H](Cc2c[nH]c4ccccc24)NC(=O)[C@H](CCCCN)NC(=O)[C@H](Cc2cnc[nH]2)NC(=O)[C@H]([C@@H](C)O)NC(=O)[C@H](CCCNC(=N)N)NC(=O)[C@H](CO)NC3=O)NC(=O)[C@H](CCCCN)NC(=O)[C@H](CC(=O)O)NC(=O)[C@H](CC(N)=O)NC(=O)[C@H](CC(=O)O)NC(=O)[C@@H]2CCCN2C1=O", "note": "[compound 102] (H-DCLGFMRKCIPDNDKCCRPNLECSRTHKWCKYVF-NH2; disulfide 2-17, 9-23, 16-30)", "values": [{"measurement": "IC50", "setting": "hNav1.5; [1]", "result": 20.8, "unit": "µM"}, {"measurement": "IC50", "setting": "hNav1.3; Use", "result": 2.14, "unit": "µM"}]}, {"smiles": "CC[C@H](C)[C@@H]1NC(=O)[C@@H]2CSSC[C@@H]3NC(=O)[C@H](C(C)C)NC(=O)[C@H](CC(C)C)NC(=O)[C@H](CC(N)=O)NC(=O)[C@@H]4CCCN4C(=O)[C@H](CCCNC(=N)N)NC(=O)[C@H](CSSC[C@H](NC(=O)[C@@H](N)CC(=O)O)C(=O)N[C@@H](CCCNC(=N)N)C(=O)NCC(=O)N[C@@H](Cc4ccccc4)C(=O)N[C@@H](CCSC)C(=O)N[C@@H](CCCNC(=N)N)C(=O)N[C@@H](CCCCN)C(=O)N2)NC(=O)[C@H](CSSC[C@@H](C(=O)N[C@@H](CCCCN)C(=O)N[C@@H](Cc2ccc(O)cc2)C(=O)N[C@H](C(=O)N[C@@H](Cc2ccccc2)C(N)=O)C(C)C)NC(=O)[C@H](Cc2c[nH]c4ccccc24)NC(=O)[C@H](CCCCN)NC(=O)[C@H](Cc2cnc[nH]2)NC(=O)[C@H]([C@@H](C)O)NC(=O)[C@H](CCCNC(=N)N)NC(=O)[C@H](CO)NC3=O)NC(=O)[C@H](CCCCN)NC(=O)[C@H](CC(=O)O)NC(=O)[C@H](CC(N)=O)NC(=O)[C@H](CC(=O)O)NC(=O)[C@@H]2CCCN2C1=O", "note": "[SEQ ID NO: 155] (H-DCRGFMRKCIPDNDKCCRPNLVCSRTHKWCKYVF-NH2; disulfide 2-17, 9-23, 16-30)", "values": [{"measurement": "IC50", "setting": "hNav1.5; IonWorks Quattro, clamped to −110 mV, depolarized to −10 mV, 5 min after compound, n=2, read-out: IWQ Use Nav1.5", "result": 8.45, "unit": "µM"}, {"measurement": "IC50", "setting": "hNav1.3; clamped to −110 mV, depolarized to −10 mV, 5 min after compound, n=2", "result": 0.05, "unit": "µM"}]}, {"smiles": "CSCC[C@@H]1NC(=O)[C@H](Cc2ccccc2)NC(=O)CNC(=O)[C@H](CC(C)C)NC(=O)[C@@H](NC(=O)[C@@H](N)CC(=O)O)CSSC[C@@H]2NC(=O)[C@@H]3CSSC[C@@H](C(=O)N[C@@H](CCCCN)C(=O)N[C@@H](Cc4ccc(O)cc4)C(=O)N[C@H](C(=O)N[C@@H](Cc4ccccc4)C(N)=O)C(C)C)NC(=O)[C@H](Cc4c[nH]c5ccccc45)NC(=O)[C@H](CCCCN)NC(=O)[C@H](Cc4cnc[nH]4)NC(=O)[C@H]([C@@H](C)O)NC(=O)[C@H](CCCNC(=N)N)NC(=O)[C@H](CO)NC(=O)[C@H](CSSC[C@H](NC(=O)[C@H](CCCCN)NC(=O)[C@H](CCCNC(=N)N)NC1=O)C(=O)N[C@@H](CO)C(=O)N1CCC[C@H]1C(=O)N[C@@H](CC(=O)O)C(=O)N[C@@H](CC(N)=O)C(=O)N[C@@H](CC(=O)O)C(=O)N[C@@H](CCCCN)C(=O)N3)NC(=O)[C@H](C(C)C)NC(=O)[C@H](CC(C)C)NC(=O)[C@H](CC(N)=O)NC(=O)[C@@H]1CCCN1C(=O)[C@H](CCCNC(=N)N)NC2=O", "note": "[compound 305] (H-DCLGFMRKCSPDNDKCCRPNLVCSRTHKWCKYVF-NH2; disulfide 2-17, 9-23, 16-30)", "values": [{"measurement": "IC50", "setting": "hNav1.5; [1]", "result": 4.64, "unit": "µM"}, {"measurement": "IC50", "setting": "hNav1.3; Use", "result": 0.09, "unit": "µM"}]}, {"smiles": "CC[C@H](C)[C@@H]1NC(=O)[C@@H]2CSSC[C@@H]3NC(=O)[C@H](C)NC(=O)[C@H](CC(C)C)NC(=O)[C@H](CC(N)=O)NC(=O)[C@@H]4CCCN4C(=O)[C@H](CCCNC(=N)N)NC(=O)[C@H](CSSC[C@H](NC(=O)[C@@H](N)CC(=O)O)C(=O)N[C@@H](CC(C)C)C(=O)NCC(=O)N[C@@H](Cc4ccccc4)C(=O)N[C@@H](CCSC)C(=O)N[C@@H](CCCNC(=N)N)C(=O)N[C@@H](CCCCN)C(=O)N2)NC(=O)[C@H](CSSC[C@@H](C(=O)N[C@@H](CCCCN)C(=O)N[C@@H](Cc2ccc(O)cc2)C(=O)N[C@H](C(=O)N[C@@H](Cc2ccccc2)C(N)=O)C(C)C)NC(=O)[C@H](Cc2c[nH]c4ccccc24)NC(=O)[C@H](CCCCN)NC(=O)[C@H](Cc2cnc[nH]2)NC(=O)[C@H]([C@@H](C)O)NC(=O)[C@H](CCCNC(=N)N)NC(=O)[C@H](CO)NC3=O)NC(=O)[C@H](CCCCN)NC(=O)[C@H](CC(=O)O)NC(=O)[C@H](CC(N)=O)NC(=O)[C@H](CC(=O)O)NC(=O)[C@@H]2CCCN2C1=O", "note": "[compound 8] (H-DCLGFMRKCIPDNDKCCRPNLACSRTHKWCKYVF-NH2; disulfide 2-17, 9-23, 16-30)", "values": [{"measurement": "IC50", "setting": "hNav1.5; [1]", "result": 20.4, "unit": "µM"}, {"measurement": "IC50", "setting": "hNav1.3; Use", "result": 0.32, "unit": "µM"}]}, {"smiles": "CC[C@H](C)[C@@H]1NC(=O)[C@@H]2CSSC[C@@H]3NC(=O)[C@H](C(C)C)NC(=O)[C@H](CC(C)C)NC(=O)[C@H](CC(N)=O)NC(=O)[C@@H]4CCCN4C(=O)[C@H](CCCNC(=N)N)NC(=O)[C@H](CSSC[C@H](NC(=O)[C@@H](N)CC(=O)O)C(=O)N[C@@H](CC(C)C)C(=O)NCC(=O)N[C@@H](Cc4ccccc4)C(=O)N[C@@H](CCSC)C(=O)N[C@@H](CCCNC(=N)N)C(=O)N[C@@H](CCCCN)C(=O)N2)NC(=O)[C@H](CSSC[C@@H](C(=O)N[C@@H](CCCCN)C(=O)N[C@@H](Cc2ccc(O)cc2)C(=O)N[C@H](C(=O)N[C@@H](Cc2ccccc2)C(=O)O)C(C)C)NC(=O)[C@H](Cc2c[nH]c4ccccc24)NC(=O)[C@H](CCCCN)NC(=O)[C@H](Cc2cnc[nH]2)NC(=O)[C@H]([C@@H](C)O)NC(=O)[C@H](CCCNC(=N)N)NC(=O)[C@H](CO)NC3=O)NC(=O)[C@H](CCCCN)NC(=O)[C@H](CC(=O)O)NC(=O)[C@H](CC(N)=O)NC(=O)[C@H](CC(=O)O)NC(=O)[C@@H]2CCCN2C1=O", "note": "[compound 107]", "values": [{"measurement": "IC50", "setting": "hNav1.5; IonWorks Quattro, use-dependent, […], read-out: IWQ Use Nav1.5", "result": 9.44, "unit": "µM"}, {"measurement": "IC50", "setting": "hNav1.3; use-dependent, […]", "result": 0.54, "unit": "µM"}]}, {"smiles": "CSCC[C@@H]1NC(=O)[C@H](Cc2ccccc2)NC(=O)CNC(=O)[C@H](CC(C)C)NC(=O)[C@@H](NC(=O)[C@@H](N)CC(=O)O)CSSC[C@@H]2NC(=O)[C@@H]3CSSC[C@@H](C(=O)N[C@@H](CCCCN)C(=O)N[C@@H](Cc4ccc(O)cc4)C(=O)N[C@H](C(=O)N[C@@H](Cc4ccccc4)C(N)=O)C(C)C)NC(=O)[C@H](Cc4c[nH]c5ccccc45)NC(=O)[C@H](CCCCN)NC(=O)[C@H](Cc4cnc[nH]4)NC(=O)[C@H]([C@@H](C)O)NC(=O)[C@H](CCCNC(=N)N)NC(=O)[C@H](CO)NC(=O)[C@H](CSSC[C@H](NC(=O)[C@H](CCCCN)NC(=O)[C@H](CCCNC(=N)N)NC1=O)C(=O)N[C@@H](CC(=O)O)C(=O)N1CCC[C@H]1C(=O)N[C@@H](CC(=O)O)C(=O)N[C@@H](CC(N)=O)C(=O)N[C@@H](CC(=O)O)C(=O)N[C@@H](CCCCN)C(=O)N3)NC(=O)[C@H](C(C)C)NC(=O)[C@H](CC(C)C)NC(=O)[C@H](CC(N)=O)NC(=O)[C@@H]1CCCN1C(=O)[C@H](CCCNC(=N)N)NC2=O", "note": "[SEQ ID NO: 119, [Asp10]GpTx-1] (H-DCLGFMRKCDPDNDKCCRPNLVCSRTHKWCKYVF-NH2; disulfide 2-17, 9-23, 16-30)", "values": [{"measurement": "IC50", "setting": "hNav1.5; [1]", "result": 11.3, "unit": "µM"}, {"measurement": "IC50", "setting": "hNav1.3; Use", "result": 0.16, "unit": "µM"}]}, {"smiles": "CC[C@H](C)[C@@H]1NC(=O)[C@@H]2CSSC[C@@H]3NC(=O)[C@H](C(C)C)NC(=O)[C@H](CC(C)C)NC(=O)[C@H](CC(N)=O)NC(=O)[C@@H]4CCCN4C(=O)[C@H](CCCNC(=N)N)NC(=O)[C@H](CSSC[C@H](NC(=O)[C@@H](N)CC(=O)O)C(=O)N[C@@H](CC(C)C)C(=O)NCC(=O)N[C@@H](Cc4ccccc4)C(=O)N[C@@H](CCSC)C(=O)N[C@@H](CCCNC(=N)N)C(=O)N[C@@H](CCCCN)C(=O)N2)NC(=O)[C@H](CSSC[C@@H](C(=O)N[C@@H](CCCCN)C(=O)N[C@@H](Cc2ccc(O)cc2)C(=O)N[C@H](C(=O)N[C@@H](Cc2ccccc2)C(N)=O)C(C)C)NC(=O)[C@H](Cc2c[nH]c4ccccc24)NC(=O)[C@H](CCCCN)NC(=O)[C@H](Cc2cnc[nH]2)NC(=O)[C@H]([C@@H](C)O)NC(=O)[C@H](CCCNC(=N)N)NC(=O)[C@H](CO)NC3=O)NC(=O)[C@H](CCCCN)NC(=O)[C@H](CC(=O)O)NC(=O)[C@H](CC(N)=O)NC(=O)[C@H](CCCCN)NC(=O)[C@@H]2CCCN2C1=O", "note": "[compound 42] (H-DCLGFMRKCIPKNDKCCRPNLVCSRTHKWCKYVF-NH2; disulfide 2-17, 9-23, 16-30)", "values": [{"measurement": "IC50", "setting": "hNav1.5; IWQ Use Nav1.5 (μM)", "result": 6.51, "unit": "µM"}, {"measurement": "IC50", "setting": "hNav1.3; Use", "result": 0.09, "unit": "µM"}]}, {"smiles": "CC[C@H](C)[C@@H]1NC(=O)[C@@H]2CSSC[C@@H]3NC(=O)[C@H](C(C)C)NC(=O)[C@H](CC(C)C)NC(=O)[C@H](CC(N)=O)NC(=O)[C@@H]4CCCN4C(=O)[C@H](CCCNC(=N)N)NC(=O)[C@H](CSSC[C@H](NC(=O)[C@@H](N)CC(=O)O)C(=O)N[C@@H](CC(C)C)C(=O)NCC(=O)N[C@@H](Cc4ccccc4)C(=O)N[C@@H](CCSC)C(=O)N[C@@H](CCCNC(=N)N)C(=O)N[C@@H](CCCCN)C(=O)N2)NC(=O)[C@H](CSSC[C@@H](C(=O)N[C@@H](CCCCN)C(=O)N[C@@H](Cc2ccc(O)cc2)C(=O)N[C@H](C(=O)N[C@@H](Cc2ccccc2)C(N)=O)C(C)C)NC(=O)[C@H](Cc2cccc4ccccc24)NC(=O)[C@H](CCCCN)NC(=O)[C@H](Cc2cnc[nH]2)NC(=O)[C@H]([C@@H](C)O)NC(=O)[C@H](CCCNC(=N)N)NC(=O)[C@H](CO)NC3=O)NC(=O)[C@H](CCCCN)NC(=O)[C@H](CC(=O)O)NC(=O)[C@H](CC(N)=O)NC(=O)[C@H](CC(=O)O)NC(=O)[C@@H]2CCCN2C1=O", "note": "[SEQ ID NO: 79, [1-Nal29]GpTx-1] (H-DCLGFMRKCIPDNDKCCRPNLVCSRTHK[1Nal]CKYVF-NH2; disulfide 2-17, 9-23, 16-30)", "values": [{"measurement": "IC50", "setting": "hNav1.5; Table 24, IonWorks Quattro, use, […], read-out: IWQ Use Nav1.5", "result": 9.25, "unit": "µM"}, {"measurement": "IC50", "setting": "hNav1.3; Table 24, use, […]", "result": 1.55, "unit": "µM"}]}]}
